From patent US20200261576A1, “APOPTOTIC CELL-MEDIATED INDUCTION OF ANTIGEN SPECIFIC REGULATORY T-CELLS FOR THE THERAPY OF AUTOIMMUNE DISEASES IN ANIMALS AND HUMANS” (The United States of America, as represented by the …, priority 2013, published 2020)

Experiments:
SJL mice = assay: Prevention of EAE in SJL mice (treatment before immunization); format: in vivo
Protocol: Antibodies used for in vivo. Anti-CD4 (clone Gk1.5), anti-CD8 antibody (clone 53-6.72), anti-TGFβ antibody (clone ID11) and mouse IgG1 (clone MOPC-21) were purchased from Bio X cell. Anti-CD20 antibody (clone 5D2) was a gift from Genentech. T cell depletion studies in EAE disease models. For EAE prevention studies SJL/J mice were either untreated or treated with CD4− (100 μg/mouse) and CD8− (50 μg/mouse) specific antibody (T cell depletion antibody). Some mice were immediately injected i.p. with pPLP or pOVA (25 μg/mouse) or PBS every other day for 16 days. All mice were immunized with pPLP and CFA (day 0). For EAE treatment studies, SJL mice were treated with CD4- and CD8-specific antibody and 5 μg of pPLP, pOVA or PBS i.p. every other day from day 12 to day 26 following immunization with pPLP (day 0). For EAE prevention studies, SJL mice were treated with CD4- and CD8-specific antibody at day −21, and 25 μg of pPLP, pOVA or PBS i.p. every other day from day −18 to day −2 before immunization with pPLP (day 0). In C57BL/6 mice, same T cell depletion regimen was utilized but pMOG (10 μg mouse) was administered via i.p. In some mice, anti-TGFβ or isotype control antibody (mIgG1) (200 μg/mice each day) were injected i.p. one day after T cell depletion. […] Mice were monitored for clinical score of disease and sacrificed at indicated time points. […]

splenocytes = assay: Antigen-recall T cell proliferation and cytokine production of splenocytes from SJL EAE mice; format: cell-based; conditions: therapy model; splenocytes restimulated with pPLP
Protocol: Cytokine assays. Splenocytes were cultured at 37° C. in 5% CO2 for 2-3 days with either soluble CD3-specific antibody (anti-CD3) (0.5 μg/ml) or MT (heat-killed M. tuberculosis, H37RA, DIFCO) (50 μg/ml) or peptides (pMOG, pPLP) (0-50 μg/ml as indicated). Cytokines were quantified in culture supernatants by ELISA; TNF-α, IL-6, and IFN-γ (BioLegend) and IL-17 (eBioscience). EAE induction, scoring, analysis and in vitro cell cultures. Peptide-induced EAE was induced in SJL mice and C57BL/6 mice as previously reported^11,20. Individual mice were observed daily and clinical scores were assessed on a 0-5 scale as follows: 0, no abnormality; 1, limp tail or hind limb weakness; 2, limp tail and hind limb weakness; 3, hind limb paralysis; 4, hind limb paralysis and forelimb weakness; and 5, moribund. […] Radioactive incorporation was counted using a flatbed β-counter (Wallac). […]

## proteolipid protein peptide PLP139-151 (HSLGKWLGHPDKF; listed as Mus musculus)
SJL mice
  EAE clinical disease, prevention: failed to prevent EAE
splenocytes
  pPLP-specific T cell proliferation and inflammatory cytokine production: no reduction
